From patent publication US20040014671A1, “Preventives or remedies for heart failure” (priority 2000, published 2004)
Where a SMILES comes first, the peptide text is derived from it. [ ]: non-standard residue; d: D form. d2Nal = N[C@H](Cc1ccc2ccccc2c1)C(=O)O

System: dogs with occluded anterior descending coronary artery
Assay: Cardiac function of dog with anterior descending coronary artery occlusion after intravenous administration
Type: in vivo
Conditions: 100 μg/kg intravenously after occlusion
Experimental: Using a dog model of acute contractile dysfunction caused by occlusion of the anterior descending coronary artery, the inventors studied the cardiotonic action of pralmorelin.
The action of pralmorelin on the cardiac dysfunction deteriorated by occlusion of the coronary artery was evaluated by various hemodynamic parameters, cardiac output (CO), stroke volume (SV), maximal positive dP/dt of left ventricular pressure (+dP/dtmax), ejection fraction (EF), mean blood pressure (MBP), heart rate (HR), total peripheral resistance (TPR) and double product (RPP) as an index of myocardial oxygen consumption.
Pralmorelin dihydrochloride (hereunder referred to as KP-102) (prepared by the method described in WO 9304081) was dissolved in distilled water to prepare a 0.5 mg/mL solution.
In the experiment, adult beagles of either sex (weighing 9-11 kg) purchased from Nihon Nosan Kogyo K.K. (Kanagawa, Japan) were used. After arrival, the animals were allowed to eat a solid meal (CD-5, CLEA Japan, Inc. or Labo D Stock, Nark Corp.) and drink water in a room at a temperature of 20±2° C. and at a humidity of 55±15% under illumination for 12 hours a day (from 7:00 to 19:00); the animals were kept under these conditions for at least one week before use.
Anesthesia was introduced by intravenous administration of pentobarbital (30 mg/kg) and in order to maintain anesthesia, pentobarbital (5-6 mg/kg/hr) was injected continuously by means of an infusion pump (FP-W-100, Toyo Sangyo) through a polyethylene cannula retained in the right cephalic vein. The endotracheal cannula was inserted and the chest was opened at the left fourth intercostal space under artificial respiration in a tidal volume of 20 mL/kg at a rate of 18 breaths/min with an artificial respirator (SN-480-3 of Shinano Seisakusho). The left anterior descending coronary artery was carefully detached from the site of origin over a length of 1-2 cm and an occluding thread was passed through.
The chest was opened at the left fifth intercostal space and a 5-segment conductance catheter (CCS-108-DA, Unique Medical) was inserted from the cardiac apex so that all electrodes would be placed in the left ventricle. A catheter equipped with a 5 Fr microtip pressure transducer (pressure transducer catheter, Model MPC-500, MILLAR) was inserted into the left ventricle through the left carotid artery. The conductance catheter and the pressure transducer catheter inserted into the left ventricle were connected to a built-in amplifier in a ventricular volume-measuring instrument (Integral 3; VPR-1002, Unique Medical) and the changes in the left ventricular pressure (LVP) and the volume of the left ventricle were measured simultaneously. To determine the mean blood pressure (MBP), blood pressure was measured via a blood pressure amplifier (AP641G, Nihon Kohden) from the 5 Fr pressure transducer catheter inserted into the left femoral artery. Heart rate (HR) was measured with a cardiotachometer (AT-601G, Nihon Kohden) from the pulse waves of blood pressure.
The chest was opened again at the fourth intercostal space and in order to measure the cardiac output (CO(EMF)) (CO as determined by an electromagnetic blood flowmeter based method), a probe connected to an electromagnetic blood flowmeter (MFV-2100, Nihon Kohden) was fitted at the site of origin of the aorta. A spiral electrode was put in the ischemic region that occurred due to the occlusion of coronary artery and a surface electrocardiogram was recorded. A Doppler probe was fitted on the left anterior descending coronary artery and the blood flow was determined with a Doppler blood flowmeter (PD-20, Crystal Biotech). The anterior descending coronary artery was occluded with pulling up the occluding thread over a period of about 5 minutes. Complete occlusion of the blood vessel was confirmed by the change in the surface electrocardiogram and the disappearance of the Doppler sound. […]

## C[C@H](NC(=O)[C@@H](Cc1ccc2ccccc2c1)NC(=O)[C@@H](C)N)C(=O)N[C@@H](Cc1c[nH]c2ccccc12)C(=O)N[C@H](Cc1ccccc1)C(=O)N[C@@H](CCCCN)C(N)=O [KP-102, D-alanyl-3-(naphthalen-2-yl)-D-alanyl-L-alanyl-L-tryptophyl-D-phenylalanyl-L-lysinamide] (H-[dA][d2Nal]AW[dF]K-NH2)
  change in LVEDP: Neither of the control and KP-102 groups showed changes
  change in LVPsys: Neither of the control and KP-102 groups showed changes
  change in double product (RPP), index of myocardial oxygen consumption: Neither group experienced a change in RPP
  change in heart rate (HR): Neither of MBP and HR changed
  change in mean blood pressure (MBP): Neither of MBP and HR changed
  change in −dP/dtmax vs control group: no significant change
5 minutes after administration
  increase in stroke volume (SV) from baseline before administration: 5%
10 minutes
  maximal increase in ejection fraction (EF): 10%
10 minutes after administration
  increase in +dP/dtmax from baseline before administration: 7%
10 minutes after administration, n=5
  maximum increase in cardiac output (CO) from baseline before administration: 7%
Significant vs control
  change in total peripheral resistance (TPR): TPR dropped following the administration
